Measurements as given in patent publication US8962688B2, “Method for the treatment of gastrointestinal disorders” (Sucampo AG, priority 2005, dated 2015).

Experiments:
[1] = test system: indomethacin-induced stomach ulcers; experiment: Indomethacin-induced stomach ulcers in rats; type: in vivo, rat
Experimental: Each group of test animals used consisted of 10 male rats of the Crj: Wistar strain. The animals were fasted for 24 hours before the oral administration of the Compound 1 (13,14-dihydro-15-keto-16,16-difluoro-PGE1) or the vehicle. Ten minutes after the oral administration of the test sample or the vehicle, all rats received a 20 mg/kg oral dose of indomethacin. The animals were euthanized 6 hours later. The stomach was removed and the length of the longest axis of each stomach ulcer was measured. The ulcer index was calculated as the sum of the lengths of each individual ulcer.

[2] = test system: total acid output; experiment: Total gastric acid output in pylorus-ligated rats; type: in vivo, rat; conditions: oral, 30 min before pyloric ligation; 4 hours output; compared to vehicle-treated control (FIG. 1)
Experimental: The study was conducted according to the method described by Wong et al (Pharmacol. Soc. 32:49-56, 1989). Each group of test animals used consisted of 6 male rats of the Crj: Wistar strain. The animals were fasted for 24 hours with free access to water. Each dose formulation of Compound 1 (13,14-dihydro-15-keto-16,16-difluoro-PGE1), saline and medium chain fatty acid triglyceride (MCT) was orally administered 30 minutes before pyloric ligation. For positive control, the animals were received pentagastrin, a known gastric acid stimulator, subcutaneously at 2000 μg/kg. Under ether anesthesia, the abdomen was opened through a midline incision, the pylorus ligated with 3-0 silk suture, and the abdomen closed. The animals were kept without diet and water thereafter. Four hours after pyloric ligation, the animals were euthanized by cervical dislocation and the abdomen opened. The gastric contents were collected into sterile centrifuge tubes, and centrifuged at 3000 rpm for 10 minutes to remove solid materials. The supernatant was collected and the volume measured. A 1 mL aliquot of each gastric fluid sample was titrated to pH 7.0 with 0.01 N sodium hydroxide using an automatic […], Co., Ltd., Japan) to determine the acidity (mEq H^+/mL) Total output of gastric acid for 4 hours was calculated

[3] = test system: gastric ulcer induced by water-immersion stress; experiment: Gastric ulcer induced by water-immersion stress (5 hours) in rats, single and combined treatment; type: in vivo, rat; conditions: for Inhibition of the gastric ulcer: result in words, summary of Table 4
Experimental: Wistar rats were used after an overnight fast with free access to water. Compound 1 (13,14-dihydro-15-keto-16,16-difluoro-PGE1) or Compound 2(13,14-dihydro-15-keto-16,16-difluoro-18(s) methyl-PGE1) was orally administered to the animals. When the effect of combined treatment with Compound 1 and proton pump inhibitor (lansoprazole or omeprazole) was evaluated, Compound 1 and proton pump inhibitor were orally administered simultaneously. Control group received the same volume of the vehicle. Ten minutes after the administration, the animals were placed in stress cages and were vertically immersed to the xiphoid process in a water bath maintained at 23° C. Five hours later, each animal was taken out from the cage and sacrificed by CO2 asphyxiation. The stomach was removed after ligating the cardiac region of stomach and the upper part of duodenum. The stomach was filled with 4 mL of physiological saline solution, and fixed in 1% formalin solution for 30 minutes. The stomach was opened along the greater curvature. The length (mm) of the individual ulcer was measured and the ulcer index was expressed as the sum of the lengths of all ulcers per stomach.

[4] = test system: stress-induced stomach ulcers; experiment: Stress-induced (water immersion, 6 hours) stomach ulcers in rats; type: in vivo, rat; conditions: for Ulcer index (sum of lengths of each individual ulcer): mean ± SE
Experimental: Each group of test animals used consisted of 9 or 10 male rats of the Crj: Wistar strain. The animals were fasted for 24 hours before the oral administration of the test sample. Ten minutes after the oral administration of various doses of the Compound 1 (13,14-dihydro-15-keto-16,16-difluoro-PGE1) or the vehicle, each animal was put in a narrow cage, and was immersed in water (23° C.) up to the height of the xipoid process for 6 hours. The animals were then euthanized. The stomach was removed and the maximum length of the longest axis of each stomach ulcer was measured. The ulcer index was calculated as the sum of lengths of each individual ulcer.

[5] = test system: rabbit platelet aggregation induced with ADP; experiment: Rabbit platelet aggregation induced with ADP; type: cell-based; conditions: for % Inhibition / Maximum aggregation: 10^−7 g/mL, platelet-rich plasma; for Maximum aggregation: mean ± SE, n=3; for Effect on the platelet aggregation: result in words, summary of Table 3
Experimental: Blood was collected from rabbits of the JW/CSK strain and citrated by mixing with sodium citrate in a ratio of 9 volumes of blood to 1 volume of 3.8% sodium citrate solution. Platelet-rich plasma (PRP) was obtained by centrifugation of the citrated blood at 1000 rpm (168×g) for 10 minutes. After collection of PRP, residual blood was further centrifuged at 3000 rpm (1670×g) for 15 minutes, and the supernatant was used as platelet-poor plasma (PPP). After pre-incubation of PRP (200 μL) with each test solution (25 μL) for 1 minutes at 37° C., 25 μL of platelet aggregation agent (ADP […]) was added. Platelet aggregation was measured with a platelet aggregation meter (HEMATRACER PAT-4A, Niko Bioscience, Inc.). Each test solution was examined with 3 different animal source platelets in duplicate fashion. Inhibition percent was calculated by comparing with the maximal aggregation with the saline-treatment group.

CCCCC(F)(F)C(=O)CCC1C(O)CC(=O)C1CCCCCCC(=O)O (stereo not shown) [Compound 1, 13,14-dihydro-15-keto-16,16-difluoro-PGE1]
Ulcer index (sum of lengths of each individual ulcer) ([1]; 2 μg/kg po, 10 min before indomethacin 20 mg/kg po, mean ± SE): 27.9 ± 5.1 | % Inhibition ([1]; 2 μg/kg po, versus vehicle control): 44% | Protection against indomethacin-induced ulcer formation ([1]; result in words, summary of Table 1): significant protection | Effect on total acid output [2]: did not affect | Inhibition ([3]; 10 μg/kg p.o.): 23% | Ulcer Index Mean ± S.E. ([3]; 10 μg/kg p.o.): 12.2 ± 1.9 mm | Inhibition ([3]; 30 μg/kg p.o.): 36% | Ulcer Index Mean ± S.E. ([3]; 30 μg/kg p.o.): 10.1 ± 1.6 mm | Inhibition ([3]; 100 μg/kg p.o.): 91% | Ulcer Index Mean ± S.E. ([3]; 100 μg/kg p.o.): 1.4 ± 0.6 mm | Inhibition of the gastric ulcer [3]: dose-dependent manner | % Inhibition ([4]; 3 μg/kg po): 9.2% | Ulcer index (sum of lengths of each individual ulcer) ([4]; 3 μg/kg po): 26.6 ± 3.7 | % Inhibition ([4]; 10 μg/kg po): 20.1% | Ulcer index (sum of lengths of each individual ulcer) ([4]; 10 μg/kg po): 23.4 ± 4.7 | % Inhibition ([4]; 30 μg/kg po): 54.3% | Ulcer index (sum of lengths of each individual ulcer) ([4]; 30 μg/kg po): 13.4 ± 2.0 | % Inhibition ([4]; 100 μg/kg po): 85.3% | Ulcer index (sum of lengths of each individual ulcer) ([4]; 100 μg/kg po): 4.3 ± 1.9 | Protection against stress-induced ulcer formation ([4]; result in words, summary of Table 2): protection significantly | % Inhibition [5]: 0% | Maximum aggregation [5]: 49.5 ± 2.5% | Effect on the platelet aggregation [5]: no effect

CC[C@H](C)CC(F)(F)C(=O)CC[C@H]1[C@H](O)CC(=O)[C@@H]1CCCCCCC(=O)O [Compound 2, 13,14-dihydro-15-keto-16,16-difluoro-18(s) methyl-PGE1]
Inhibition ([3]; 10 μg/kg p.o.): 21% | Ulcer Index Mean ± S.E. ([3]; 10 μg/kg p.o.): 12.6 ± 2.2 mm | Inhibition ([3]; 30 μg/kg p.o.): 36% | Ulcer Index Mean ± S.E. ([3]; 30 μg/kg p.o.): 10.2 ± 2.0 mm | Inhibition ([3]; 100 μg/kg p.o.): 85% | Ulcer Index Mean ± S.E. ([3]; 100 μg/kg p.o.): 2.4 ± 0.9 mm | Inhibition of the gastric ulcer [3]: dose-dependent manner

Cc1c(OCC(F)(F)F)ccnc1C[S+]([O-])c1nc2ccccc2[nH]1 (stereo not shown) [Lansoprazole, lansoprazole, reference compound]
Ulcer Index Mean ± S.E. ([3]; Lansoprazole 1000 μg/kg p.o. alone): 4.6 ± 1.2 mm | inhibition at 1 mg/kg ([3]; Rattus norvegicus, po, Lansoprazole 1000 μg/kg p.o. alone): 46%

COc1ccc2[nH]c([S+]([O-])Cc3ncc(C)c(OC)c3C)nc2c1 (stereo not shown) [Omeprazole, omeprazole, reference compound]
Ulcer Index Mean ± S.E. ([3]; Omeprazole 3000 μg/kg p.o. alone): 5.9 ± 0.9 mm | inhibition at 3 mg/kg ([3]; Rattus norvegicus, po, Omeprazole 3000 μg/kg p.o. alone): 31%

CCCCC[C@H](O)/C=C/[C@H]1[C@H](O)CC(=O)[C@@H]1CCCCCCC(=O)O [PGE1, prostaglandin E1, reference compound]
% Inhibition [5]: 73% | Maximum aggregation [5]: 23.3 ± 1.9 % | Effect on the platelet aggregation [5]: significantly inhibited
